This data set in a line: recombinant UMI read abundance after kanamycin selection (control-corrected) (log10(CPM+1)); higher = more efficient recombination; extreme values may be limits of the assay; sequences stand for … in AGTGCAGAGAAAATCGGCCAGTTTTCTCTGCCTGCAGTCCGCATGCCGTGGGACCCCTTGGGTTCTAACCTGTTGCCTAGATTTATGCAGCGGACTGCCTTTCTCCCAAAGTGATAAACCGG…AGGTTGGTTTCACT; site = the 11-nt donor. The method in brief:
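In a pooled Escherichia coli screen for the IS621 bridge recombinase, donor and donor-binding-loop pairs were each placed with a 12-nt UMI on a plasmid bearing a promoterless kanamycin gene. This library was co-electroporated with a target plasmid encoding a fixed target and T7-inducible recombinase, and cells were plated either on IPTG (0.07 mM) plus kanamycin or without selection, in two replicates each. Recombinant UMIs were PCR-amplified across the donor–target junction and sequenced, and counts were converted to CPM, averaged over replicates, scaled by control-derived factors and reported as log10(CPM+1).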
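Note: IS621 bridge recombinase in Escherichia coli cells against a fixed T5 target plasmid.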

As to “GCGAAATCATGGACCGGTTTTCCCGGTAATCCGTATTTGCT (site GCGAAACCTAG)”, the “recombinant UMI read abundance (log10)” value was found to be 0.

For “GCGAAATCATGGACCGGTTTTCCCGGTAATCCGTATTTGCT (site GCGAAAGCTAG)”, the “recombinant UMI read abundance (log10)” value is 0.

For “GCGAAATCATGGACCGGTTTTCCCGGTAATCCGTATTTGCT (site GCGAAATCTAG)”, the “recombinant UMI read abundance (log10)” value came out at 1.62.

For the sequence “GCGAACCCATGGACCGGTTTTCCCGGTAATCCGTATTTGAT (site GCGAACCCTAT)”, the “recombinant UMI read abundance (log10)” value was found to be 0.903.

In the case of “GCGAACCCATGGACCGGTTTTCCCGGTAATCCGTATTTGGG (site GCGAAACCTCC)”, the “recombinant UMI read abundance (log10)” value was determined as 0.013.

For “GCGAACCCATGGACCGGTTTTCCCGGTAATCCGTATTTGGG (site GCGAACCCTCC)”, the “recombinant UMI read abundance (log10)” value was 0.0373.

As for “GCGAACCCATGGACCGGTTTTCCCGGTAATCCGTATTTGGG (site GCGAAGCCTCC)”, the “recombinant UMI read abundance (log10)” value worked out at 0.00885.

With “GCGAACCCATGGACCGGTTTTCCCGGTAATCCGTATTTGGG (site GCGAATCCTCC)”, the “recombinant UMI read abundance (log10)” value was 0.0113.

Turning to “GCGAAGACATGGACCGGTTTTCCCGGTAATCCGTATTTGCT (site GCGAAAACTAG)”, the “recombinant UMI read abundance (log10)” value came to 1.01.

For the sequence “GCGAAGACATGGACCGGTTTTCCCGGTAATCCGTATTTGCT (site GCGAACACTAG)”, the “recombinant UMI read abundance (log10)” value was found to be 0.298.

As for “GCGAAGACATGGACCGGTTTTCCCGGTAATCCGTATTTGCT (site GCGAAGACTAG)”, the “recombinant UMI read abundance (log10)” value is 1.92.

Regarding “GCGAAGACATGGACCGGTTTTCCCGGTAATCCGTATTTGCT (site GCGAATACTAG)”, the “recombinant UMI read abundance (log10)” value is 0.

For the sequence “GCGAAGACATGGACCGGTTTTCCCGGTAATCCGTATTTGGG (site GCGAAGACTCC)”, the “recombinant UMI read abundance (log10)” value stood at 0.479.

As to “GCGAAGACATGGACCGGTTTTCCCGGTAATCCGTATTTGGG (site GCGAAGCCTCC)”, the “recombinant UMI read abundance (log10)” value amounted to 0.

Take “GCGAAGACATGGACCGGTTTTCCCGGTAATCCGTATTTGGG (site GCGAAGGCTCC)”: the “recombinant UMI read abundance (log10)” value was 0.287.

As to “GCGAAGACATGGACCGGTTTTCCCGGTAATCCGTATTTGGG (site GCGAAGTCTCC)”, the “recombinant UMI read abundance (log10)” value came to 0.439.

With “GCGAAGCCATGGACCGGTTTTCCCGGTAATCCGTATTTGGA (site GCGAAGCCTAC)”, the “recombinant UMI read abundance (log10)” value amounted to 0.00917.

Consider “GCGAAGCCATGGACCGGTTTTCCCGGTAATCCGTATTTGGA (site GCGAAGCCTCC)”, for which the “recombinant UMI read abundance (log10)” value worked out at 0.00526.

“GCGAAGCCATGGACCGGTTTTCCCGGTAATCCGTATTTGGA (site GCGAAGCCTGC)”: the “recombinant UMI read abundance (log10)” value stood at 0.

As to “GCGAAGCCATGGACCGGTTTTCCCGGTAATCCGTATTTGGA (site GCGAAGCCTTC)”, the “recombinant UMI read abundance (log10)” value was 0.24.

On to “GCGAAGCCATGGACCGGTTTTCCCGGTAATCCGTATTTGGC (site GCGAAGCCTAC)”, for which the “recombinant UMI read abundance (log10)” value worked out at 0.0106.

“GCGAAGCCATGGACCGGTTTTCCCGGTAATCCGTATTTGGC (site GCGAAGCCTCC)”: the “recombinant UMI read abundance (log10)” value came out at 0.

In the case of “GCGAAGCCATGGACCGGTTTTCCCGGTAATCCGTATTTGGC (site GCGAAGCCTGC)”, the “recombinant UMI read abundance (log10)” value came out at 0.

With “GCGAAGCCATGGACCGGTTTTCCCGGTAATCCGTATTTGGC (site GCGAAGCCTTC)”, the “recombinant UMI read abundance (log10)” value is 0.664.

Regarding “GCGACACCATGGACCGGTTTTCCCGGTAATCCGTATTTGTC (site GCGACACCTGA)”, the “recombinant UMI read abundance (log10)” value is 0.

With “GCGACATCATGGACCGGTTTTCCCGGTAATCCGTATTTGTG (site GCGACATCTCA)”, the “recombinant UMI read abundance (log10)” value is 1.78.

Consider “GCGACCACATGGACCGGTTTTCCCGGTAATCCGTATTTGTT (site GCGACCACTAA)”, for which the “recombinant UMI read abundance (log10)” value was 0.823.

Turning to “GCGACGCCATGGACCGGTTTTCCCGGTAATCCGTATTTGTA (site GCAACGCCTTA)”, the “recombinant UMI read abundance (log10)” value amounted to 0.542.

Consider “GCGACGCCATGGACCGGTTTTCCCGGTAATCCGTATTTGTA (site GCCACGCCTTA)”, for which the “recombinant UMI read abundance (log10)” value worked out at 0.0222.

In the case of “GCGACGCCATGGACCGGTTTTCCCGGTAATCCGTATTTGTA (site GCGACGCCTTA)”, the “recombinant UMI read abundance (log10)” value was determined as 0.398.

Take “GCGACGCCATGGACCGGTTTTCCCGGTAATCCGTATTTGTA (site GCTACGCCTTA)”: the “recombinant UMI read abundance (log10)” value came out at 0.019.

As to “GCGACGGCATGGACCGGTTTTCCCGGTAATCCGTATTTGTC (site GCGACGGCTGA)”, the “recombinant UMI read abundance (log10)” value came out at 1.84.

For “GCGAGCACATGGACCGGTTTTCCCGGTAATCCGTATTTGGC (site GCGAGCACTGC)”, the “recombinant UMI read abundance (log10)” value turned out to be 3.27.

Consider “GCGAGCGCATGGACCGGTTTTCCCGGTAATCCGTATTTGTC (site GCGAGCGCTGA)”, for which the “recombinant UMI read abundance (log10)” value is 2.69.

As to “GCGAGGCCATGGACCGGTTTTCCCGGTAATCCGTATTTGGG (site GCGAAGCCTCC)”, the “recombinant UMI read abundance (log10)” value was 0.0133.

On to “GCGAGGCCATGGACCGGTTTTCCCGGTAATCCGTATTTGGG (site GCGACGCCTCC)”, for which the “recombinant UMI read abundance (log10)” value stood at 0.022.

With “GCGAGGCCATGGACCGGTTTTCCCGGTAATCCGTATTTGGG (site GCGAGGCCTCC)”, the “recombinant UMI read abundance (log10)” value was found to be 0.0117.

Take “GCGAGGCCATGGACCGGTTTTCCCGGTAATCCGTATTTGGG (site GCGATGCCTCC)”: the “recombinant UMI read abundance (log10)” value was determined as 0.0249.

As for “GCGAGGGCATGGACCGGTTTTCCCGGTAATCCGTATTTGCC (site GCGAGGGCTGG)”, the “recombinant UMI read abundance (log10)” value amounted to 2.23.

Turning to “GCGATAGCATGGACCGGTTTTCCCGGTAATCCGTATTTGTC (site GCGATAGCTGA)”, the “recombinant UMI read abundance (log10)” value was 2.34.

“GCGCCCACATGGACCGGTTTTCCCGGTAATCCGTATTTGGA (site GCGCCCACTTC)”: the “recombinant UMI read abundance (log10)” value was 0.365.

As for “GCGCGCACATGGACCGGTTTTCCCGGTAATCCGTATTTGCT (site GCGCGCACTAG)”, the “recombinant UMI read abundance (log10)” value came to 2.68.

On to “GCGCTGACATGGACCGGTTTTCCCGGTAATCCGTATTTGAG (site GCGCTGACTCT)”, for which the “recombinant UMI read abundance (log10)” value came to 1.62.

On to “GCGGAAACATGGACCGGTTTTCCCGGTAATCCGTATTTGCT (site GCGAAAACTAG)”, for which the “recombinant UMI read abundance (log10)” value was 0.

“GCGGAAACATGGACCGGTTTTCCCGGTAATCCGTATTTGCT (site GCGCAAACTAG)”: the “recombinant UMI read abundance (log10)” value came out at 1.5.

Turning to “GCGGAAACATGGACCGGTTTTCCCGGTAATCCGTATTTGCT (site GCGGAAACTAG)”, the “recombinant UMI read abundance (log10)” value was found to be 2.19.

Turning to “GCGGAAACATGGACCGGTTTTCCCGGTAATCCGTATTTGCT (site GCGTAAACTAG)”, the “recombinant UMI read abundance (log10)” value came to 1.86.

As for “GCGGAGGCATGGACCGGTTTTCCCGGTAATCCGTATTTGAA (site GCGGAGGCTTT)”, the “recombinant UMI read abundance (log10)” value was found to be 1.91.

Consider “GCGGTAACATGGACCGGTTTTCCCGGTAATCCGTATTTGAT (site GCGGTAACTAT)”, for which the “recombinant UMI read abundance (log10)” value was determined as 2.46.

“GCGTAAACATGGACCGGTTTTCCCGGTAATCCGTATTTGCT (site GCGAAAACTAG)”: the “recombinant UMI read abundance (log10)” value is 0.

Consider “GCGTAAACATGGACCGGTTTTCCCGGTAATCCGTATTTGCT (site GCGCAAACTAG)”, for which the “recombinant UMI read abundance (log10)” value was found to be 1.82.

On to “GCGTAAACATGGACCGGTTTTCCCGGTAATCCGTATTTGCT (site GCGGAAACTAG)”, for which the “recombinant UMI read abundance (log10)” value came out at 0.309.

As to “GCGTAAACATGGACCGGTTTTCCCGGTAATCCGTATTTGCT (site GCGTAAACTAG)”, the “recombinant UMI read abundance (log10)” value stood at 2.73.

In the case of “GCGTACCCATGGACCGGTTTTCCCGGTAATCCGTATTTGAG (site GCGTACCCTCT)”, the “recombinant UMI read abundance (log10)” value is 0.023.

Regarding “GCGTACTCATGGACCGGTTTTCCCGGTAATCCGTATTTGAC (site GCGTACTCTGT)”, the “recombinant UMI read abundance (log10)” value amounted to 3.44.

With “GCGTCAACATGGACCGGTTTTCCCGGTAATCCGTATTTGGT (site GCGTCAACTAC)”, the “recombinant UMI read abundance (log10)” value came out at 0.129.

As to “GCGTTAGCATGGACCGGTTTTCCCGGTAATCCGTATTTGTG (site ACGTTAGCTCA)”, the “recombinant UMI read abundance (log10)” value stood at 0.84.

Consider “GCGTTAGCATGGACCGGTTTTCCCGGTAATCCGTATTTGTG (site CCGTTAGCTCA)”, for which the “recombinant UMI read abundance (log10)” value is 0.885.

Consider “GCGTTAGCATGGACCGGTTTTCCCGGTAATCCGTATTTGTG (site GCGTTAGCTCA)”, for which the “recombinant UMI read abundance (log10)” value came out at 1.75.

As for “GCGTTAGCATGGACCGGTTTTCCCGGTAATCCGTATTTGTG (site TCGTTAGCTCA)”, the “recombinant UMI read abundance (log10)” value is 0.669.

Take “GCGTTTCCATGGACCGGTTTTCCCGGTAATCCGTATTTGCT (site GCGTTTCCTAG)”: the “recombinant UMI read abundance (log10)” value was 1.81.

Regarding “GCTAAAGCATGGACCGGTTTTCCCGGTAATCCGTATTTGAT (site ACTAAAGCTAT)”, the “recombinant UMI read abundance (log10)” value was determined as 0.901.

For the sequence “GCTAAAGCATGGACCGGTTTTCCCGGTAATCCGTATTTGAT (site CCTAAAGCTAT)”, the “recombinant UMI read abundance (log10)” value is 1.04.

For “GCTAAAGCATGGACCGGTTTTCCCGGTAATCCGTATTTGAT (site GCTAAAGCTAT)”, the “recombinant UMI read abundance (log10)” value was 1.92.

With “GCTAAAGCATGGACCGGTTTTCCCGGTAATCCGTATTTGAT (site TCTAAAGCTAT)”, the “recombinant UMI read abundance (log10)” value came out at 0.378.

With “GCTAATACATGGACCGGTTTTCCCGGTAATCCGTATTTGGC (site ACTAATACTGC)”, the “recombinant UMI read abundance (log10)” value is 0.

“GCTAATACATGGACCGGTTTTCCCGGTAATCCGTATTTGGC (site CCTAATACTGC)”: the “recombinant UMI read abundance (log10)” value is 0.772.

For the sequence “GCTAATACATGGACCGGTTTTCCCGGTAATCCGTATTTGGC (site GCTAATACTGC)”, the “recombinant UMI read abundance (log10)” value worked out at 0.0276.

The values above are taken from the supplement of paper PMC11208160.
